Results taken from US8232288B2, “Substituted benzimidazoles, benzothiazoles and benzoxazoles” (Gruenenthal GmbH, priority 2009, dated 2012).
Structures can show the parent of a compound that is named as a salt.

What was measured:
[1] = target: T1, B1R receptor of the rat (rB1R) (Rattus norvegicus, UniProt P97583); assay: Functional investigation on the bradykinin receptor 1 (B1R), FLIPR Ca2+ assay, rB1R cells; assay type: cell-based
T1 construct: expressed in transfected cells; host or cells: CHO K1 cells
T1 sequence (P97583 1-337): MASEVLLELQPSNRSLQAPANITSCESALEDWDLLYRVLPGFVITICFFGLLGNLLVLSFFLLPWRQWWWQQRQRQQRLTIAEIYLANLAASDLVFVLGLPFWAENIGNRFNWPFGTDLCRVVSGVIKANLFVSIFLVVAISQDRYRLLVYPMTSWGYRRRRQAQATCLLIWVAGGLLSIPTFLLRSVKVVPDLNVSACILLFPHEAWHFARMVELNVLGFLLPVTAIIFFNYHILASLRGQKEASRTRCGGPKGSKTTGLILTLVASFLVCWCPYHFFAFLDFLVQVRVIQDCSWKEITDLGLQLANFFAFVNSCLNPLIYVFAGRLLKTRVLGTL
Method: (§1) The agonistic or antagonistic action of substances can be quantified on the bradykinin receptor 1 (B1R) of the human and rat species with ectopically expressing cell lines (CHO K1 cells) and with the aid of a Ca^2+-sensitive dyestuff (Fluo-4) in a fluorescent imaging plate reader (FLIPR). The figure in % activation is based on the Ca^2+ signal after addition of Lys-Des-Arg^9-bradykinin (0.5 nM) or Des-Arg^9-bradykinin (100 nM). Antagonists lead to a suppression of the Ca^2+ inflow after addition of the agonist. % inhibition compared with the maximum achievable inhibition is stated.
(§2) The agonistic or antagonistic action of substances can be determined on the bradykinin receptor 1 (B1R) of the human and rat species with the following assay. In accordance with this assay, the Ca^2+ inflow through the channel is quantified with the aid of a Ca^2+-sensitive dyestuff (type Fluo-4, Molecular Probes Europe BV, Leiden Holland) in a fluorescent imaging plate reader (FLIPR, Molecular Devices, Sunnyvale, USA).
(§3) Chinese hamster ovary cells (CHO K1 cells) transfected stably with the human B1R gene (hB1R cells) or the B1R gene of the rat (rB1R cells) are used. For functional studies, these cells are plated out on black 96-well plates with a clear base (BD Biosciences, Heidelberg, Germany or Greiner, Frickenhausen, Germany) in a density of 20,000-35,000 cells/well. The cells are left overnight at 37° C. and 5% CO2 in culture medium (hB1R cells: Nutrient Mixture Ham's F12, Gibco Invitrogen GmbH, Karlsruhe, Germany or DMEM, Sigma-Aldrich, Taufkirchen, Germany; rB1R cells: D-MEM/F12, Gibco Invitrogen GmbH, Karlsruhe, Germany) with 10 vol. % FBS (foetal bovine serum, Gibco Invitrogen GmbH, Karlsruhe, Germany or PAN Biotech GmbH, Aidenbach, Germany). On the following day, the cells are loaded for 60 min at 37° C. with 2.13 μM Fluo-4 (Molecular Probes Europe BV, Leiden Holland) in HBSS buffer (Hank's buffered saline solution, Gibco Invitrogen GmbH, Karlsruhe, Germany) with 2.5 mM probenecid (Sigma-Aldrich, Taufkirchen, Germany) and 10 mM HEPES (Sigma-Aldrich, Taufkirchen, Germany). The plates are then washed 2× with HBSS buffer, and HBSS buffer which additionally contains 0.1% BSA (bovine serum albumin; Sigma-Aldrich, Taufkirchen, Germany), 5.6 mM glucose and 0.05% gelatine (Merck KGaA, Darmstadt, Germany) is added. After a further incubation of 20 minutes at room temperature, the plates are inserted into the FLIPR for the Ca^2+ measurement.
(§4) Alternatively, the plates are washed with buffer A (15 mM HEPES, 80 mM NaCl, 5 mM KCl, 1.2 mM CaCl2, 0.7 mM MgSO4, 2 g/l glucose, 2.5 mM probenecid), buffer A is added and the plates are loaded with 2.5 μM Fluo-4 and 0.025% Pluronic F127 (Sigma-Aldrich, Taufkirchen, Germany). Thereafter, the cells are washed 2× with buffer A and incubated for 30 minutes at room temperature with buffer A, which additionally contains 0.05% BSA and 0.05% gelatine, and thereafter inserted into the FLIPR for the Ca^2+ measurement.
(§5) The Ca^2+-dependent fluorescence is measured here before and after addition of substances (λex=488 nm, λem=540 nm). Quantification is by measurement of the highest fluorescence intensity (FC, fluorescence counts) over time.
(§6) The FLIPR protocol consists of 2 additions of substance. Test substances (10 μM) are first pipetted on to the cells and the Ca^2+ inflow is compared with the control (hB1R: Lys-Des-Arg^9-bradykinin>=50 nM; rB1R: Des-Arg^9-bradykinin 10 μM). This gives the result in % activation based on the Ca^2+ signal after addition of Lys-Des-Arg^9-bradykinin (>=50 nM) or Des-Arg^9-bradykinin (10 μM). After incubation for 10-20 minutes, Lys-Des-Arg^9-bradykinin (hB1R) or Des-Arg^9-bradykinin (rB1R) in the concentration of the EC80 is applied and the inflow of Ca^2+ is likewise determined. Antagonists lead to a suppression of the Ca^2+ inflow. % inhibition compared with the maximum achievable inhibition is calculated.
(§7) In order to determine the IC50 value, the substances are added in various concentrations. […]

[2] = target: T2, human B1R receptor (hB1R) (Homo sapiens, UniProt P46663); assay: Functional investigation on the bradykinin receptor 1 (B1R), FLIPR Ca2+ assay, hB1R cells; assay type: cell-based
T2 construct: expressed in transfected cells; host or cells: CHO K1 cells
T2 sequence (P46663 1-353): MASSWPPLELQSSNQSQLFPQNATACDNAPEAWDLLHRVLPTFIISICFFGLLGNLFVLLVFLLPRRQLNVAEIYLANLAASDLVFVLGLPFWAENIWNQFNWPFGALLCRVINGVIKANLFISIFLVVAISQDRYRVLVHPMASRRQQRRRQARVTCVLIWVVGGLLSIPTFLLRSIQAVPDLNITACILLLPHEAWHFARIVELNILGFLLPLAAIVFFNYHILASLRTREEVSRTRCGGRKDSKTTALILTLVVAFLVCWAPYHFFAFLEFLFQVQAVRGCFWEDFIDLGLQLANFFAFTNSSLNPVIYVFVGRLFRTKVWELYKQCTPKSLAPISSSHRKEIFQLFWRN
Method: as §1, §2, §3, §4, §5, §6, §7

SMILES | % Inhibition (rat B1R) at 10 μM ([1]; 10 µM) | % Inhibition (human B1R) at 10 μM ([2]; 10 µM) | inhibition at 10 µM [1] | inhibition at 10 µM [2]
COc1cc(C)c(S(=O)(=O)N(C)Cc2nc3cccc(C(=O)N4CCC5(CC4)CCN(c4ccncc4)CC5)c3[nH]2)c(C)c1 [I_01, 4-methoxy-N,2,6-trimethyl-N-[[7-(9-pyridin-4-yl-3,9-diazaspiro[5.5]undecane-3-carbonyl)-1H-benzoimidazol-2-yl]-methyl]-benzenesulfonic acid amide] | 96% | 98% |  | 
COc1cc(C)c(S(=O)(=O)N(C)CCc2nc3c(C(=O)N4CCC5(CC4)CCN(c4ccncc4)CC5)cccc3[nH]2)c(C)c1 [I_02, 4-methoxy-N,2,6-trimethyl-N-[2-[4-(9-pyridin-4-yl-3,9-diazaspiro[5.5]undecane-3-carbonyl)-1H-benzoimidazol-2-yl]-ethyl]-benzenesulfonic acid amide] |  |  | 100% | 97%
COc1cc(C)c(S(=O)(=O)N(C)Cc2nc3cccc(C(=O)N4CCC5(CCC(Oc6ccncc6)CC5)CC4)c3[nH]2)c(C)c1 [I_03, 4-methoxy-N,2,6-trimethyl-N-[[7-(9-pyridin-4-yloxy-3-azaspiro[5.5]undecane-3-carbonyl)-1H-benzoimidazol-2-yl]-methyl]-benzenesulfonic acid amide] |  |  | 86% | 99%
COc1cc(C)c(S(=O)(=O)N(C)Cc2nc3cccc(C(=O)N4CCC5(CCC(N6CCC6)CC5)CC4)c3[nH]2)c(C)c1 [I_04, N-[[7-[9-(azetidin-1-yl)-3-azaspiro[5.5]undecane-3-carbonyl]-1H-benzoimidazol-2-yl]-methyl]-4-methoxy-N,2,6-trimethyl-benzenesulfonic acid amide] |  |  | 97% | 99%
COc1cc(C)c(S(=O)(=O)N(C)Cc2nc3cccc(C(=O)N4CCC5(CCC(N6CC(F)(F)C6)CC5)CC4)c3[nH]2)c(C)c1 [I_05, N-[[7-[9-(3,3-difluoro-azetidin-1-yl)-3-azaspiro[5.5]undecane-3-carbonyl]-1H-benzoimidazol-2-yl]-methyl]-4-methoxy-N,2,6-trimethyl-benzenesulfonic acid amide] |  |  | 72% | 55%
COc1cc(C)c(S(=O)(=O)N(C)C(C)c2nc3cccc(C(=O)N4CCC5(CC4)CCN(c4ccncc4)CC5)c3[nH]2)c(C)c1 (stereo not drawn) [I_06, 4-methoxy-N,2,6-trimethyl-N-[1-[7-(9-pyridin-4-yl-3,9-diazaspiro[5.5]undecane-3-carbonyl)-1H-benzoimidazol-2-yl]-ethyl]-benzenesulfonic acid amide] |  |  | 90% | 94%
CN(Cc1nc2cccc(C(=O)N3CCC4(CC3)CCN(c3ccncc3)CC4)c2[nH]1)S(=O)(=O)c1cccc2ccccc12 [I_07, N-methyl-N-[[7-(9-pyridin-4-yl-3,9-diazaspiro[5.5]undecane-3-carbonyl)-1H-benzoimidazol-2-yl]-methyl]-naphthalene-1-sulfonic acid amide] |  |  | 96% | 98%
CN(Cc1nc2cccc(C(=O)N3CCC4(CC3)CCN(c3ccncc3)CC4)c2[nH]1)S(=O)(=O)c1ccccc1C(F)(F)F [I_08, N-methyl-N-[[7-(9-pyridin-4-yl-3,9-diazaspiro[5.5]undecane-3-carbonyl)-1H-benzoimidazol-2-yl]-methyl]-2-(trifluoromethyl)-benzenesulfonic acid amide] |  |  | 99% | 100%
COc1cc(C)c(S(=O)(=O)N(C)Cc2nc3cccc(C(=O)N4CCC5(CCN(c6ccncc6)CC5)C4)c3[nH]2)c(C)c1 [I_09, 4-methoxy-N,2,6-trimethyl-N-[[7-(8-pyridin-4-yl-3,8-diazaspiro[4.5]decane-3-carbonyl)-1H-benzoimidazol-2-yl]-methyl]-benzenesulfonic acid amide] |  |  | 104% | 99%
COc1cc(C)c(S(=O)(=O)N(C)Cc2nc3cccc(C(=O)N4CCC5(CCN(c6ccncc6)C5)C4)c3[nH]2)c(C)c1 (stereo not drawn) [I_10, 4-methoxy-N,2,6-trimethyl-N-[[7-(8-pyridin-4-yl-3,8-diazaspiro[4.4]nonane-3-carbonyl)-1H-benzoimidazol-2-yl]-methyl]-benzenesulfonic acid amide] |  |  | 104% | 100%
CN(Cc1nc2cccc(C(=O)N3CCC4(CC3)CCN(c3ccncc3)CC4)c2[nH]1)S(=O)(=O)c1ccc(OC(F)(F)F)cc1Cl [I_11, 2-chloro-N-methyl-N-[[7-(9-pyridin-4-yl-3,9-diazaspiro[5.5]undecane-3-carbonyl)-1H-benzoimidazol-2-yl]-methyl]-4-(trifluoromethyloxy)-benzenesulfonic acid amide hydrochloride] |  |  | 99% | 99%
COc1cc(C)c(S(=O)(=O)N(C)C2(c3nc4cccc(C(=O)N5CCC6(CC5)CCN(c5ccncc5)CC6)c4[nH]3)CC2)c(C)c1 [I_12, 4-methoxy-N,2,6-trimethyl-N-[1-[7-(9-pyridin-4-yl-3,9-diazaspiro[5.5]undecane-3-carbonyl)-1H-benzoimidazol-2-yl]-cyclopropyl]-benzenesulfonic acid amide] |  |  | 92% | 98%
COc1cc(C)c(S(=O)(=O)N(C)Cc2nc3ccc(F)c(C(=O)N4CCC5(CC4)CCN(c4ccncc4)CC5)c3[nH]2)c(C)c1 [I_13, N-[[6-fluoro-7-(9-pyridin-4-yl-3,9-diazaspiro[5.5]undecane-3-carbonyl)-1H-benzoimidazol-2-yl]-methyl]-4-methoxy-N,2,6-trimethyl-benzenesulfonic acid amide] |  |  | 93% | 98%
COc1cc(C)c(S(=O)(=O)N(C)C(C)c2nc3cccc(C(=O)N4CCC5(CC4)CCN(S(=O)(=O)c4cccc6c4ccn6C)CC5)c3[nH]2)c(C)c1 (stereo not drawn) [I_CC-60, 4-Methoxy-N,2,6-trimethyl-N-[1-[7-[9-[(1-methyl-1H-indol-4-yl)sulfonyl]-3,9-diazaspiro[5.5]undecane-3-carbonyl]-1H-benzoimidazol-2-yl]-ethyl]-benzenesulfonic acid amide] |  |  | 101% | 
